Key:
[1] = molecular target: T1, Aurora kinase C (Homo sapiens) (UniProt Q9UQB9); test: Inhibition of human Aurora C at 18.6 nM by HotSpot assay relative to control
T1 sequence (whole entry): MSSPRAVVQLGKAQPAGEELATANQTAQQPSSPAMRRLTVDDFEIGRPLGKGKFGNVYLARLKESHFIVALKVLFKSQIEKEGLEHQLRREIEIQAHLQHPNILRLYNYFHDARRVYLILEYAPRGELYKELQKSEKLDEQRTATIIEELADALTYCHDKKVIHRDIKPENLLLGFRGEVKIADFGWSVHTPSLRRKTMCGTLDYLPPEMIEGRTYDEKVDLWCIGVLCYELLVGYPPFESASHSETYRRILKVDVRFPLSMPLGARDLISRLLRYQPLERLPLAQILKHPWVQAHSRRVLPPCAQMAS

[2] = molecular target: T2, Serine/threonine-protein kinase BRSK1 (Homo sapiens) (UniProt Q8TDC3); test: Inhibition of human BRSK1 at 18.6 nM by HotSpot assay relative to control
T2 sequence (whole entry): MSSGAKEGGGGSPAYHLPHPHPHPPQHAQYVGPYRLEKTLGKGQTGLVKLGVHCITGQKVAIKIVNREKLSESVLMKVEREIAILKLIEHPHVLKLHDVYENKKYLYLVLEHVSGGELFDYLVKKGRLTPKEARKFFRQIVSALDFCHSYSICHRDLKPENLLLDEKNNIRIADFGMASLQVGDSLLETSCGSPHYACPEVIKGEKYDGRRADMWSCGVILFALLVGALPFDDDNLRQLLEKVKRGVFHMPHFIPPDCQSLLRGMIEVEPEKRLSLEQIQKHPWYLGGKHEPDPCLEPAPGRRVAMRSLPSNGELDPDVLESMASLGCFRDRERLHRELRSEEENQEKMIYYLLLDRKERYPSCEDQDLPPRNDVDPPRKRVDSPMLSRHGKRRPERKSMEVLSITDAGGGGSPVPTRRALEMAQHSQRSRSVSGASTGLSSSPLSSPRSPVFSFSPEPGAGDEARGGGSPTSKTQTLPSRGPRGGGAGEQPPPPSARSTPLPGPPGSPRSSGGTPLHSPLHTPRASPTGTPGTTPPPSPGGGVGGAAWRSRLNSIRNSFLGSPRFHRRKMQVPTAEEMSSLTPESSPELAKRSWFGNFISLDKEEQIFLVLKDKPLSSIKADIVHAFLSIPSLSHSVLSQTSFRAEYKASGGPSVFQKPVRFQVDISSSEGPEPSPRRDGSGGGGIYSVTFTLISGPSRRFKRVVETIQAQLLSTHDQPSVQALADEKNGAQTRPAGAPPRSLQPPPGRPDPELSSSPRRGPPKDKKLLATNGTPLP

[3] = molecular target: Ribosomal protein S6 kinase alpha-5 (Homo sapiens) (UniProt O75582); test: Inhibition of human RPS6KA5 at 18.6 nM by HotSpot assay relative to control
Chain of Ribosomal protein S6 kinase alpha-5 (Homo sapiens) (O75582 whole entry, looked up): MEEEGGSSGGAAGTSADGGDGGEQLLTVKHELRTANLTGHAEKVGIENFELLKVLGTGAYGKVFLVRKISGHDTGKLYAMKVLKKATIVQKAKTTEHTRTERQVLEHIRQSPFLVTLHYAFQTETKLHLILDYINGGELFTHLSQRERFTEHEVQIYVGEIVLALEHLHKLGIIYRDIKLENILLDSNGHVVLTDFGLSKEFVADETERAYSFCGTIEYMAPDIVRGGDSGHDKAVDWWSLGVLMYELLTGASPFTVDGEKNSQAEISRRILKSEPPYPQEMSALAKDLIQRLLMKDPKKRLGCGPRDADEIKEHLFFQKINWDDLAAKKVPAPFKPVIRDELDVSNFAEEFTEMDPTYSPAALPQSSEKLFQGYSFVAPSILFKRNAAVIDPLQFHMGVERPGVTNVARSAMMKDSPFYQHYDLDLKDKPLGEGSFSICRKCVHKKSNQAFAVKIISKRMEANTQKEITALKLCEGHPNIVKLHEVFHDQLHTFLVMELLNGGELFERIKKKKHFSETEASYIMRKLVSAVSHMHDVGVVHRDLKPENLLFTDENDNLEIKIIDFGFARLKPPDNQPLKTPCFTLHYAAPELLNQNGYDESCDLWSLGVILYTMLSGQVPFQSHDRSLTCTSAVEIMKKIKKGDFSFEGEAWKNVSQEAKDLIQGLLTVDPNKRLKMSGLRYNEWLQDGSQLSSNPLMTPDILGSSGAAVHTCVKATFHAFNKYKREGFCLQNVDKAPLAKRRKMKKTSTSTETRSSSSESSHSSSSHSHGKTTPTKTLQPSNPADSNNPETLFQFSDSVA

[4] = molecular target: T3, Serine/threonine-protein kinase 4 (Homo sapiens) (UniProt Q13043); test: Inhibition of human STK4 at 18.6 nM by HotSpot assay relative to control
T3 sequence (whole entry): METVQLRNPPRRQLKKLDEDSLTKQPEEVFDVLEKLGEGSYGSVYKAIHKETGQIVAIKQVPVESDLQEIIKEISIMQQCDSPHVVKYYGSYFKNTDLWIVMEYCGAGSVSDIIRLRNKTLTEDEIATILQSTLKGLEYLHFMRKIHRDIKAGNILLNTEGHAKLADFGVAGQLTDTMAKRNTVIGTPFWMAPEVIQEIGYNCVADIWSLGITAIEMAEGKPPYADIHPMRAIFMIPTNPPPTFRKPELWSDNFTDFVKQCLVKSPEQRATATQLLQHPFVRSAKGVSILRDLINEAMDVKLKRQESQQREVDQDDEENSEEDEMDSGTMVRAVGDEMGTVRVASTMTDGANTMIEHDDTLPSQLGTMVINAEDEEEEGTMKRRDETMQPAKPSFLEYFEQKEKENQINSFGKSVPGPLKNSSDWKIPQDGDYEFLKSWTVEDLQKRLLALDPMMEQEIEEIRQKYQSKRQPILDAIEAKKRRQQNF

[5] = molecular target: Macrophage-stimulating protein receptor (Homo sapiens) (UniProt Q04912); test: Inhibition of human MST1R at 1.82 nM by HotSpot assay relative to control
Chain of Macrophage-stimulating protein receptor (Homo sapiens) (Q04912 25-304 limits assumed): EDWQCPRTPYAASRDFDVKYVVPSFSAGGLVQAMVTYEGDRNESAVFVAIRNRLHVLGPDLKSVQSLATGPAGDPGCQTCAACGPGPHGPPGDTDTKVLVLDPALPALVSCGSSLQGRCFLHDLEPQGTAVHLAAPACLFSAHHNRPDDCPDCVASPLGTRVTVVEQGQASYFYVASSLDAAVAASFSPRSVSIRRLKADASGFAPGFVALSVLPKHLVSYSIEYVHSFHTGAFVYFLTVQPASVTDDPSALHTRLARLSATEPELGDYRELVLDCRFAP
Chain of Macrophage-stimulating protein receptor (Homo sapiens) (Q04912 310-1400 limits assumed): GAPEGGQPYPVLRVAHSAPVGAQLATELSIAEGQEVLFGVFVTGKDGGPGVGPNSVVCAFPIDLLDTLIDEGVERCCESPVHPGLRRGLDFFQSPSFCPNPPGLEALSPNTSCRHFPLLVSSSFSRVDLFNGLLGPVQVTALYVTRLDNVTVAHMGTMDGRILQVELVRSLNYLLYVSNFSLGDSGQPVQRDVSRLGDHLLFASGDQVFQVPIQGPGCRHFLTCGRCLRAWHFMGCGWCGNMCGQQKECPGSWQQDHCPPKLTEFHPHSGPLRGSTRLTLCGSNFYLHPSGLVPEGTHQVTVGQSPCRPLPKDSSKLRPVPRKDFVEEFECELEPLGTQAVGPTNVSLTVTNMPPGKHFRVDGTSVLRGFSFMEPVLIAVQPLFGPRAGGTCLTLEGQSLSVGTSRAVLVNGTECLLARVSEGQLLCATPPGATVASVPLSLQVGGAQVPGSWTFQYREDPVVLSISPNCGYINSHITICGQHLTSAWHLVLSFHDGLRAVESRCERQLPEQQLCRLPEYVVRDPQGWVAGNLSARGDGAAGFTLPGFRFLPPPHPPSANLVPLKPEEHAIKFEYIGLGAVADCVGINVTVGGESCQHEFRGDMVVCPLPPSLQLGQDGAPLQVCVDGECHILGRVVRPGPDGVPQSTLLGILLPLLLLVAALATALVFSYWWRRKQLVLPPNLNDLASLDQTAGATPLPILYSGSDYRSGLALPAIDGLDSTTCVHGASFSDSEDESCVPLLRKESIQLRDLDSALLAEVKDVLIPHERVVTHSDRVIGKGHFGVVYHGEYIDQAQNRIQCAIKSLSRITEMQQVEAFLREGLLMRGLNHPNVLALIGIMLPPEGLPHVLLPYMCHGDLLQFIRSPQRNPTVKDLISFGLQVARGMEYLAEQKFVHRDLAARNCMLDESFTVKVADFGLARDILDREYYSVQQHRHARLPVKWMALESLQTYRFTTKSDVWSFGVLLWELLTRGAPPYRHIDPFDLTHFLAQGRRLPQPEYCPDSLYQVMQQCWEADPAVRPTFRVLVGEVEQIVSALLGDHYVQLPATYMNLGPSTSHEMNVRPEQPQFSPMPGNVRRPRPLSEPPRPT

[6] = molecular target: T4, Serine/threonine-protein kinase ULK2 (Homo sapiens) (UniProt Q8IYT8); test: Inhibition of human ULK2 at 1.82 nM by HotSpot assay relative to control
T4 sequence (whole entry): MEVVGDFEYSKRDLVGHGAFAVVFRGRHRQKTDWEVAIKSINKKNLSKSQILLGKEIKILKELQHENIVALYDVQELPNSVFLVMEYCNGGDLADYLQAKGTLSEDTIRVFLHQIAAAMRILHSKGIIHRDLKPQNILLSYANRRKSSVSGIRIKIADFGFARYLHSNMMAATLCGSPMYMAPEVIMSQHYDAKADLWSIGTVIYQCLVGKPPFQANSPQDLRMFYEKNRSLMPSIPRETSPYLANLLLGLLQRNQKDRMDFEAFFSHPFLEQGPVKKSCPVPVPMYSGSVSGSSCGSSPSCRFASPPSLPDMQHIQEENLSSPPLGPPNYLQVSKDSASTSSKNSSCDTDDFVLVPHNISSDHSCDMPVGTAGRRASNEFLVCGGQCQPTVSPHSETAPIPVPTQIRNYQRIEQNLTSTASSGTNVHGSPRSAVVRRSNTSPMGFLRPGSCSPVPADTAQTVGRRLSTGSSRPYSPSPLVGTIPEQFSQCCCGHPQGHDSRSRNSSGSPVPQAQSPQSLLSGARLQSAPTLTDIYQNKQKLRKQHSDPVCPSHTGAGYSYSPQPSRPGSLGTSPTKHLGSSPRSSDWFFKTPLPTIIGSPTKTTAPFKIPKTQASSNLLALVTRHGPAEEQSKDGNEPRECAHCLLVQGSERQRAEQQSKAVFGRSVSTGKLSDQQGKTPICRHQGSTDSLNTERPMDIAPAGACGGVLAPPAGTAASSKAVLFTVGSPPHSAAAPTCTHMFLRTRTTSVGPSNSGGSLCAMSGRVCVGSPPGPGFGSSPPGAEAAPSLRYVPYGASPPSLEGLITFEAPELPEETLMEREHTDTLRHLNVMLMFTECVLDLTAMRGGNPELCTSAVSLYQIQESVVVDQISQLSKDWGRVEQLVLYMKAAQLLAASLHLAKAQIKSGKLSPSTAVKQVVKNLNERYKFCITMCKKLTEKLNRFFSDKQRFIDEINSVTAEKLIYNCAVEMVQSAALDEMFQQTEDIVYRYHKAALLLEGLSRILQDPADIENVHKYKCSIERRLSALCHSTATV

| inhibition [1] | inhibition [2] | inhibition [3] | inhibition [4] | inhibition [5] | inhibition [6] | Compound |
| --- | --- | --- | --- | --- | --- | --- |
| -7.85% | -2.86% | -5.75% | 6.04% |  |  | C[C@]1(O)C[C@@H](c2nc(-c3ccc4ccc(-c5ccccc5)nc4c3)c3c(N)nccn32)C1 |
|  |  |  |  | 0.1% | -7.91% | C[C@@]1(C(=O)Nc2ccc(F)nc2)CCCN1c1nc(Nc2cc(C3CC3)n[nH]2)c2cccn2n1 |

— ChEMBL document CHEMBL5653615 (J Biol Chem, 2013)
